Data from the NIST ThermoML archive (doi:10.1016/j.fluid.2015.04.021).
± gives the expanded uncertainty stated by the source.

Experiment: cn = amount concentration of the nth substance listed, in mol/dm3
Settings: 101.3 kPa, Liquid; for viscosity: Falling or rolling sphere viscometry; for mass density: Vibrating tube method

O=C([O-])[C@@H]1CCCN1.[K+] [potassium L-prolinate] + O
Settings	mass density [kg/m3]	viscosity [mPa·s]
298.15 K, c1 = 0.5001	1026.6 ± 8	1.105 ± 0.18
298.15 K, c1 = 1	1054.7 ± 8	1.38 ± 0.22
298.15 K, c1 = 1.5	1088 ± 8	1.861 ± 0.3
298.15 K, c1 = 2	1111.4 ± 8	2.293 ± 0.37
298.15 K, c1 = 2.5	1145.8 ± 8	3.181 ± 0.51
298.15 K, c1 = 3	1166.9 ± 8	4.054 ± 0.65
303.15 K, c1 = 0.5001	1025.2 ± 8	0.9857 ± 0.16
303.15 K, c1 = 1	1053 ± 8	1.232 ± 0.2
303.15 K, c1 = 1.5	1086.4 ± 8	1.642 ± 0.26
303.15 K, c1 = 2	1109.2 ± 8	2.028 ± 0.33
303.15 K, c1 = 2.5	1143.2 ± 8	2.755 ± 0.44
303.15 K, c1 = 3	1164.1 ± 8	3.491 ± 0.56
308.15 K, c1 = 0.5001	1023.5 ± 8	0.8913 ± 0.14
308.15 K, c1 = 1	1051 ± 8	1.103 ± 0.18
308.15 K, c1 = 1.5	1084.5 ± 8	1.465 ± 0.23
308.15 K, c1 = 2	1107 ± 8	1.794 ± 0.29
308.15 K, c1 = 2.5	1140.6 ± 8	2.409 ± 0.39
308.15 K, c1 = 3	1161.3 ± 8	3.038 ± 0.49
313.15 K, c1 = 0.5001	1021.6 ± 8	0.8086 ± 0.13
313.15 K, c1 = 1	1049 ± 8	0.9949 ± 0.16
313.15 K, c1 = 1.5	1082.2 ± 8	1.31 ± 0.21
313.15 K, c1 = 2	1104.7 ± 8	1.601 ± 0.26
313.15 K, c1 = 2.5	1137.9 ± 8	2.136 ± 0.34
313.15 K, c1 = 3	1158.4 ± 8	2.662 ± 0.43
318.15 K, c1 = 0.5001	1019.6 ± 8	0.7351 ± 0.12
318.15 K, c1 = 1	1046.8 ± 8	0.9035 ± 0.14
318.15 K, c1 = 1.5	1081.2 ± 8	1.2 ± 0.19
318.15 K, c1 = 2	1102.5 ± 8	1.439 ± 0.23
318.15 K, c1 = 2.5	1135.1 ± 8	1.903 ± 0.31
318.15 K, c1 = 3	1155.5 ± 8	2.354 ± 0.38
323.15 K, c1 = 0.5001	1017.6 ± 8	0.6741 ± 0.11
323.15 K, c1 = 1	1044.5 ± 8	0.8251 ± 0.13
323.15 K, c1 = 1.5	1078.8 ± 8	1.085 ± 0.17
323.15 K, c1 = 2	1100.4 ± 8	1.296 ± 0.21
323.15 K, c1 = 2.5	1132.2 ± 8	1.707 ± 0.27
323.15 K, c1 = 3	1152.5 ± 8	2.102 ± 0.34
328.15 K, c1 = 0.5001	1015.2 ± 8	0.6219 ± 0.1
328.15 K, c1 = 1	1042.2 ± 8	0.7569 ± 0.12
328.15 K, c1 = 1.5	1076.6 ± 8	0.9922 ± 0.16
328.15 K, c1 = 2	1098.5 ± 8	1.196 ± 0.19
328.15 K, c1 = 2.5	1129.2 ± 8	1.541 ± 0.25
328.15 K, c1 = 3	1149.4 ± 8	1.887 ± 0.3
333.15 K, c1 = 0.5001	1012.8 ± 8	0.5764 ± 0.092
333.15 K, c1 = 1	1039.9 ± 8	0.7002 ± 0.11
333.15 K, c1 = 1.5	1074.7 ± 8	0.9175 ± 0.15
333.15 K, c1 = 2	1095.8 ± 8	1.093 ± 0.18
333.15 K, c1 = 2.5	1126.2 ± 8	1.4 ± 0.22
333.15 K, c1 = 3	1146.3 ± 8	1.704 ± 0.27
338.15 K, c1 = 0.5001	1010.4 ± 8	0.5373 ± 0.086
338.15 K, c1 = 1	1037.4 ± 8	0.6493 ± 0.1
338.15 K, c1 = 1.5	1073.7 ± 8	0.8552 ± 0.14
338.15 K, c1 = 2	1093.6 ± 8	1.009 ± 0.16
338.15 K, c1 = 2.5	1123 ± 8	1.278 ± 0.2
338.15 K, c1 = 3	1143.1 ± 8	1.549 ± 0.25
343.15 K, c1 = 0.5001	1008 ± 8	0.5039 ± 0.081
343.15 K, c1 = 1	1035.5 ± 8	0.608 ± 0.097
343.15 K, c1 = 1.5	1071.9 ± 8	0.7966 ± 0.13
343.15 K, c1 = 2	1094.3 ± 8	0.9587 ± 0.15
343.15 K, c1 = 2.5	1119.9 ± 8	1.173 ± 0.19
343.15 K, c1 = 3	1139.8 ± 8	1.414 ± 0.23
348.15 K, c1 = 0.5001	1005.6 ± 8	0.4733 ± 0.076
348.15 K, c1 = 1	1035.7 ± 8	0.5792 ± 0.093
348.15 K, c1 = 1.5	1070.5 ± 8	0.7486 ± 0.12
348.15 K, c1 = 2	1092.4 ± 8	0.8972 ± 0.14
348.15 K, c1 = 2.5	1116.6 ± 8	1.082 ± 0.17
348.15 K, c1 = 3	1136.5 ± 8	1.299 ± 0.21
